The target of series [1] is Cholinesterase (Equus caballus) (UniProt P81908). In words: Mixed type inhibition of equine BChE using varying level of acetylthiocholine as substrate by Dixon plot analysis.
The nature of series [2]: Cytotoxicity against human U-87 MG cells assessed as cell viability at 10 uM incubated for 24 hrs by MTT assay. The series is classed as cell-based, U-87MG ATCC. As to conditions: read-out: Activity. (Formazan colour is commonly taken as a measure of viable cells.)
Another series concerns the target Cholinesterase (Equus caballus, UniProt P81908). Nature of the series: Inhibition of equine BChE assessed as inhibition constant using acetylthiocholine as substrate measured for 0.5 to 1.5 mins by Ellman's method. (In general: DTNB colorimetry detects thiols as they appear.)
The next series addresses Acetylcholinesterase (Electrophorus electricus, UniProt O42275). In words: Inhibition of electric eel AChE assessed as inhibition constant using acetylthiocholine as substrate measured for 0.5 to 1.5 mins by Ellman's method.
Series [3] can be described thus: Metal chelating activity assessed as compound-Zn2+ complex formation at 2 mM in presence of Zn(NO3)2.6H2O by UV-vis spectrophotometric titration analysis.
The nature of series [4]: Metal chelating activity assessed as compound-Fe3+ complex formation by measuring mole fraction that causes maximum variation in absorbance in presence of FeCl3.6H2O by Job's plot analysis.
The nature of series [5]: Metal chelating activity assessed as compound-Fe3+ complex formation at 1.7 mM in presence of FeCl3.6H2O by UV-vis spectrophotometric titration analysis.
A short description of series [6]: Metal chelating activity assessed as compound-Fe3+ complex formation at 2 mM in presence of FeCl3.6H2O by UV-vis spectrophotometric titration analysis.
The nature of series [7]: Metal chelating activity assessed as compound-Cu2+ complex formation at 2 mM in presence of CuSO4.5H2O by UV-vis spectrophotometric titration analysis.
Series [8] in a line: Metal chelating activity assessed as compound-Cu2+ complex formation by measuring mole fraction that causes maximum variation in absorbance in presence of CuSO4.5H2O by Job's plot analysis.

Activity calls are given as the source filed them. The rule behind the calls is not given here.

We go through 9 molecules from ChEMBL document CHEMBL4765309, “New deferiprone derivatives as multi-functional cholinesterase inhibitors: design, synthesis and in vitro evaluation” (Eur J Med Chem, 2020).

By Ki is commonly meant the dissociation constant of the complex between target and ligand, obtained from inhibition or displacement.

Chain of Acetylcholinesterase (O42275 whole entry): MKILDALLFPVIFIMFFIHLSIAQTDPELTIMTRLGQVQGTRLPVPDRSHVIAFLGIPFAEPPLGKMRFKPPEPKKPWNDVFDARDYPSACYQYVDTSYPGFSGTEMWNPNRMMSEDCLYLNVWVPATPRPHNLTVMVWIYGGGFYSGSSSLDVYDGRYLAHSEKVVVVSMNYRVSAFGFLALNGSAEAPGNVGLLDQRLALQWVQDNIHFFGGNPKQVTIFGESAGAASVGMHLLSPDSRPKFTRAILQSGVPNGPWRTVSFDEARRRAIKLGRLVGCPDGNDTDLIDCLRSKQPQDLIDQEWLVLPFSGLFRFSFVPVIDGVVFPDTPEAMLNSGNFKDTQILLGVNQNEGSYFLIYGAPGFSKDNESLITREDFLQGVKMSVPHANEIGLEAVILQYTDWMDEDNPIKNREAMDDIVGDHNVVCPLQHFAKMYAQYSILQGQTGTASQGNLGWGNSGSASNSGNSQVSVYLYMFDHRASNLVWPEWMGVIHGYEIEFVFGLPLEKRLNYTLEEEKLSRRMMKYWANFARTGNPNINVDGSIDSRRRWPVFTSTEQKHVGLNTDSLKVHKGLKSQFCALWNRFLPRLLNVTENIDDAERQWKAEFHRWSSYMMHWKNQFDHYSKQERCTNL
Chain of Cholinesterase (P81908 whole entry): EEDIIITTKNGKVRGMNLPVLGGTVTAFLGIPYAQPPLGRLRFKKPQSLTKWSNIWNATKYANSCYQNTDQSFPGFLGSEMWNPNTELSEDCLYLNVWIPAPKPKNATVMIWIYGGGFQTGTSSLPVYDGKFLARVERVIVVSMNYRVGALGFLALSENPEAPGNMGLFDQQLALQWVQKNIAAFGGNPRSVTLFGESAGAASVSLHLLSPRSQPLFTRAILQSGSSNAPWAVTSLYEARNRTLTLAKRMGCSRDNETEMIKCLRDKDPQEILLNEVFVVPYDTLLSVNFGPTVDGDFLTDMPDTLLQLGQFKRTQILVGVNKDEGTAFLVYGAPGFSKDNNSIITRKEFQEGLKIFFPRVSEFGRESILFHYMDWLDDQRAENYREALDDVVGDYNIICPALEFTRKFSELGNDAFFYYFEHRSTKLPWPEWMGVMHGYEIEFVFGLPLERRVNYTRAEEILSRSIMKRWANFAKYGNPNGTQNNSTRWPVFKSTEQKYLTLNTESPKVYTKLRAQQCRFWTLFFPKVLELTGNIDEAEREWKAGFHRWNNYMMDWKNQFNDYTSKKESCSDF
Chain of Cholinesterase (Equus caballus) (P81908 whole entry): as above

For `Cc1c(OCc2ccccc2)c(=O)ccn1CCCCNCc1ccccc1`, the inhibition entry in series [1] was “Active”. The viability at 24 h, 10 µM in series [2] is > 75%. Moreover, on Cholinesterase, the Ki was found to be 450 nM.
Take `Cc1c(OCc2ccccc2)c(=O)ccn1CCCCCCNCc1ccccc1`: the inhibition result in [1] is “Active”. The viability at 24 h, 10 µM in series [2] is > 75%. Besides, the Ki on Acetylcholinesterase turned out to be 788 nM; on Cholinesterase, 2360 nM. In series [3], the outcome was inactive. Further, the Activity (mole fraction) in series [4] stood at 0.52. Moreover, the outcome in series [5] was Active.
With `Cc1c(OCc2ccccc2)c(=O)ccn1CCCCCCNc1nccc(Cl)n1`, the inhibition entry in series [1] was “Active”. Further, the viability at 24 h, 10 µM in series [2] was > 75%. The Ki on Cholinesterase was found to be 1080 nM. Also, in series [6], the result was Active.
As for `Cc1c(O)c(=O)ccn1CCCCCCNCc1ccccc1`, the viability at 24 h, 10 µM in series [2] is > 75%. Moreover, the result in [7] and in [6] was Active. Besides, the Activity (mole fraction) in [8] was determined as 0.37; in series [4], 0.53. The Ki on Acetylcholinesterase came to 1370 nM. For the same molecule, the result in series [3] was inactive.
For `COc1ccccc1CNCCCCCCn1ccc(=O)c(O)c1C`, the viability at 24 h, 10 µM in [2] was > 75%. For the same molecule, the Ki at Acetylcholinesterase turned out to be 1340 nM.
Regarding `Cc1c(O)c(=O)ccn1CCCCCCNc1ccnc(NCc2ccccc2)n1`, in series [1], the inhibition result was “Active”. For the same molecule, the viability at 24 h, 10 µM in [2] was > 75%. The figures for the Activity (mole fraction) in series [8] and in series [4] were 0.64 and 0.5, respectively. Besides, on Cholinesterase, the Ki came out at 920 nM. Further, the outcome in series [3] was Active.
With `Cc1c(OCc2ccccc2)c(=O)ccn1CCCCCCNc1ccccn1`, in series [1], the inhibition result was “Active”. Besides, the viability at 24 h, 10 µM in series [2] is > 75%. In addition, the inhibition constant (Ki) at Cholinesterase was determined as 182 nM. Further, the result in [6] was Active. Also, the Activity (mole fraction) in series [4] was 0.7.
With `Cc1c(OCc2ccccc2)c(=O)ccn1CCCCCCNc1ccnc(NCc2ccccc2)n1`, in series [1], the inhibition result was “Active”. Besides, the viability at 24 h, 10 µM in series [2] is > 75%. The outcome in series [7] and in [6] was Active. Moreover, at Cholinesterase, the Ki was 258 nM. In series [4], the Activity (mole fraction) stood at 0.67.
As to `COc1ccccc1CNCCCCCCn1ccc(=O)c(OCc2ccccc2)c1C`, the inhibition result in [1] is “Active”. Further, the viability at 24 h, 10 µM in series [2] was > 75%. Moreover, the values for the Ki on Acetylcholinesterase and on Cholinesterase were 2790 nM and 910 nM, respectively.
